Data published in patent publication US8815857B2 (Boehringer Ingelheim International GmbH, priority 2011, dated 2014).
Values after ≈ are worked out from the molar mass of the structure shown.

How the values were obtained:
[1] = Assessment of solubility: HT solubility in pION buffer, UV spectrophotometry; conditions: for solubility: kinetic from dmso stock
Protocol: Solubility is measured by the following method.
DMSO stock samples at 10 mM concentration are prepared. […] The samples are pierced and 100 ul of thawed samples are transferred into the PCR plate for analysis. Each sample is run in duplicate at each pH (pH 4.5 and 7.4). Up to 95 samples can be run in replicate at 2 pH's+1 DMSO (blank).
Preparation of pH 4.5 and 7.4 Buffers:
• pH 4.5 buffer:—To 12.5 of system solution (pION)qs to 500 mL of distilled water (pH 2.85-2.90); adjust the pH to pH 4.5 with 0.5 N NaOH. • pH 7.4 buffer: To 12.5 of system solution (pION)qs to 500 mL of distilled water (pH 2.85-2.90); adjust the pH to pH 7.4 with 0.5N NaOH. […] Procedure: Preparation of UV Blank Plate:
75 ul of buffer (pH 7.4 or pH 4.5) is added to UV plate followed by addition of 70 ul of N-propanol. The solution is mixed and the blank spectrum is read using spectrophotometer.
Preparation of Reference UV Plate:
10 ul of each stock sample (including DMSO control) is added to 190 ul of N-propanol to prepare the reference stock plate. Reference stock samples are mixed and 5 ul of each stock sample is added to UV blank plate after it is read spectrophotometrically. The reference stock sample is mixed with blank solution in UV plate and the reference spectrum is read using UV spectrophotometer.
Preparation of Sample for Incubation:
Solubility at pH 7.4:6 ul of each stock sample (including DMSO control) is added to the storage plate containing 600 ul of pH 7.4 buffer, mixed and incubated for 16-19 h. The plate is sealed well during the incubation process. The DMSO content in the sample is 1.0%. The concentration in deep well plates is 100 uM
6 ul of each stock sample (including DMSO control) is added to the deep well plate containing 600 ul of pH 4.5 buffer, mixed and incubated for 16-19 h. The plate is sealed well during the incubation process. The DMSO content in the sample is 1.0%. The concentration in deep well plates is 100 uM
Preparation of Sample UV Plate:
At the end of the incubation period, 100 uL of sample from the storage plate is vacuum filtered using a filter plate. This step wets the filters and the filtrate is discarded. Another 200 ul of the sample from the deep well plate is vacuum filtered using the same filter block but a clean filter plate. 75 ul of the filtrate from the filter plate is transferred to a UV sample plate. 75 ul of N-propanol is added to this UV plate. The solution is mixed and the spectrum is read using the UV spectrophotometer.
The spectra collected for blank, reference and sample from 250-498 nm is analyzed using pION software. If the sample precipitates out, the solubility is reported as XX μg/ml.

[2] = target: T1, Recombinant human soluble guanylate cyclase (sGC), alpha 1 / beta 1 subunits, heme-free (Homo sapiens, UniProt Q02108+Q02153); assay: Molecular assay: cGMP formation by heme-free recombinant sGC (CisBio cGMP detection kit); assay type: biochemical; conditions: 300 pM heme-free sGC, 37° C., 60 min, cGMP readout; read-out: EC50 nM, Activity of Compounds in Molecular Assay
T1 construct: histidine tag (C); made in house; host or cells: Sf9 insect cells (baculovirus coinfection)
T1 sequence (Q02108 1-690 partner): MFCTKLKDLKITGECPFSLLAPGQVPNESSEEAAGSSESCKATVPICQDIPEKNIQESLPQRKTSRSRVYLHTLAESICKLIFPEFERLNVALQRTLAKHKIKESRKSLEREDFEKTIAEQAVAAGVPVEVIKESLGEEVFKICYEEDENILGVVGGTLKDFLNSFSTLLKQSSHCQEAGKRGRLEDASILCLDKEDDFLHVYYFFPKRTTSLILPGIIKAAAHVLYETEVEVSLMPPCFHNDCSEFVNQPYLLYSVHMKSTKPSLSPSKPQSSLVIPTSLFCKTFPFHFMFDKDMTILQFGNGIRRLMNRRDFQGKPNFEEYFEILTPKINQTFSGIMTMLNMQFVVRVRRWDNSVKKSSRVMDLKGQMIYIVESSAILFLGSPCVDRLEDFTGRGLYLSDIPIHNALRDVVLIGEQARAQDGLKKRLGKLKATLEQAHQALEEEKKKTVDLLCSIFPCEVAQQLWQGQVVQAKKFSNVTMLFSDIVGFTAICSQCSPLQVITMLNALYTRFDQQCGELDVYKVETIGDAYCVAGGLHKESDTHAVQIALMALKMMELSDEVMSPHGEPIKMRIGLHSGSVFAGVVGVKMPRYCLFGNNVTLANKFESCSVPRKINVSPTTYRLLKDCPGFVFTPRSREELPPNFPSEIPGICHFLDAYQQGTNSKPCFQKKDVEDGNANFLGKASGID
T1 sequence (Q02153 1-619): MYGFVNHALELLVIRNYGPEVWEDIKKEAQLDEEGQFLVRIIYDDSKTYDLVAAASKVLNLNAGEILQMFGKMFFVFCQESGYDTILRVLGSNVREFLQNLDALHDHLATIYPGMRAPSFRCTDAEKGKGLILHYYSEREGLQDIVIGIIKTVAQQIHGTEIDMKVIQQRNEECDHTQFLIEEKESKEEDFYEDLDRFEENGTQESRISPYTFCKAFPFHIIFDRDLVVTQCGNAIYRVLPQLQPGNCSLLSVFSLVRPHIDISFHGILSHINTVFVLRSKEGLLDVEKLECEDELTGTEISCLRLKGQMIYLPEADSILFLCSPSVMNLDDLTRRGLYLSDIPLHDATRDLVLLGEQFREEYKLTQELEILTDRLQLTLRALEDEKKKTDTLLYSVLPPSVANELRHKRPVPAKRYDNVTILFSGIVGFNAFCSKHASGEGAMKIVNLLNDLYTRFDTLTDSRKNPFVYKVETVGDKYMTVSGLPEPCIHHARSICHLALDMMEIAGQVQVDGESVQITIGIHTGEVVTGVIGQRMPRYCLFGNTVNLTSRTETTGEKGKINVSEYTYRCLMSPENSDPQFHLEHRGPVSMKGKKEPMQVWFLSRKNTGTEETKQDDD
Protocol: Recombinant human soluble guanylate cyclase (sGC) is purified from Sf9 insect cells coinfected with baculoviruses expressing the alpha 1 or beta 1 subunit of sGC, both with a C-terminal histidine tag. Heme-free sGC is prepared by treating cell lysate with a final concentration of 0.5% Tween 20 prior to purification on a nickel affinity column.
sGC catalyzes the conversion of guanosine-5′-triphosphate (GTP) to cyclic guanosine monophosphate (cGMP). The activity of sGC is measured in vitro using the commercially available CisBio cGMP detection kit (catalog # 62GM2PEB) in a 384 well format. In brief, 300 pM heme-free sGC is incubated in reaction buffer (50 mM MOPS pH 6.8, 0.2 N KOH, 50 mM NaCl, 2 mM MgCl2, 0.1% BSA, 1.25 mM IBMX, 0.25 mM TCEP, 50 nM GTP) in the presence or absence of dilutions of test compounds diluted in DMSO (final concentration of 1%) in a volume of 10 microL at 37° C. for 60 min. Undiluted reaction products or an 80-fold dilution of reaction products (10 microL of either) prepared in reaction buffer containing 0.2 mM TCEP and 10 mM EDTA is mixed with 5 microL of d2-cGMP plus 5 microL of Eu^3+ cryptate-labeled anti-cGMP, each diluted in buffer containing 0.1 M KPO4 pH 7.5, 0.4 M KF, 20 mM EDTA, 0.2% BSA. After a one h incubation at room temperature in the dark, the mixtures are quantified on an EnVision plate reader (PerkinElmer) according to manufacturer instructions (laser excitation 337 nm, emission 620 and 665 nm). The ratio at each compound concentration is converted to nM cGMP using the linear portion of a calibration curve. Log compound concentration is plotted against combined undiluted and diluted nM cGMP values to determine the EC50 for each curve.

[3] = pION system solution buffer, pH 7.4, pH 7.4, aqueous buffer, Solubility (pH 7.4), pH 7.4 buffer, 16-19 h incubation, 1.0% DMSO
[4] = pION system solution buffer, pH 4.5, pH 4.5, aqueous buffer, Solubility (pH 4.5), pH 4.5 buffer, 16-19 h incubation, 1.0% DMSO

| solubility [1, 3] [µg/mL] | solubility [1, 4] [µg/mL] | EC50 [2] [nM] | Structure (SMILES) | further results |
| --- | --- | --- | --- | --- |
| 42 (≈ 80.8 µM) |  |  | Cc1ccc(OCc2ccc(C(=O)N3CCCC3)cc2C)c(-c2csc(N3CCC(C(=O)O)CC3)n2)c1 [Compound 7] | Solubility (pH 4.5) ([1]; pH 4.5 buffer, 16-19 h incubation, 1.0% DMSO): >62 μg/mL |
| 33 (≈ 63.5 µM) | > 51 |  | Cc1cc(CN2CCCCC2)ccc1COc1c(C)cccc1-c1csc(N2CCC(C(=O)O)CC2)n1 [Compound 16] |  |
| > 63 | > 63 |  | Cc1ccc(OCc2ccc(CN3CCCCC3)cc2C)c(-c2csc(N3CCC(C(=O)O)CC3)n2)c1 [Compound 18] |  |
| > 52 | > 52 |  | Cc1ccc(OCc2ccc(CN3CCOCC3)cc2C)c(-c2csc(N3CCC[C@@H](C(=O)O)C3)n2)c1 [Compound 19] |  |
| > 63 | > 63 |  | COCCN(C)Cc1ccc(COc2ccc(C)cc2-c2csc(N3CCC(C(=O)O)CC3)n2)c(C)c1 [Compound 27] |  |
| > 56 | > 56 |  | Cc1cc(CN2CCC(C(N)=O)CC2)ccc1COc1c(C)cccc1-c1csc(N2CCC(C(=O)O)CC2)n1 [Compound 93] |  |
|  |  | 1100 | Cc1cc(CN2CCS(=O)(=O)CC2)ccc1COc1ccc(C#N)cc1-c1csc(N2CC3C(C2)C3C(=O)O)n1 (stereo not shown) [Compound 116] |  |
|  |  | 18 | Cc1cc(CN2CCS(=O)(=O)CC2)ccc1COc1ccccc1-c1csc(N2CC3CCC(C2)C3C(=O)O)n1 (stereo not shown) [Compound 120] |  |
|  |  | 30 | Cc1ccc(OCc2ccc(CN3CCS(=O)(=O)CC3)cc2C)c(-c2csc(N3CCC(C(=O)O)CC3C)n2)c1 (stereo not shown) [Compound 124] |  |
| > 58 | 0.45 (≈ 0.765 µM) |  | Cc1cc(CN2CCS(=O)(=O)CC2)ccc1COc1ccc(Cl)cc1-c1csc(N2CC3C(C2)C3C(=O)O)n1 (stereo not shown) [Compound 128] |  |
|  |  | 54 | Cc1cc(CN2CCS(=O)(=O)CC2)ccc1COc1ccc(Cl)cc1-c1csc(N2CCC(C(=O)O)C(C)C2)n1 (stereo not shown) [Compound 144] |  |
| > 63 | 0.3 (≈ 0.468 µM) |  | Cc1cc(CN2CCS(=O)(=O)CC2)ccc1COc1ccc(F)cc1-c1csc(N2CCC(C(=O)O)C(C(F)(F)F)C2)n1 (stereo not shown) [Compound 155] |  |
|  |  | 1900 | COCCCNC(=O)c1ccc(COc2ccc(C)cc2-c2csc(N3CCC(C(=O)O)CC3)n2)c(C)c1 [Compound 159] |  |
|  |  | 2800 | Cc1ccc(OCc2ccc(C(=O)N(C)CCN(C)C)cc2C)c(-c2csc(N3CCC(C(=O)O)CC3)n2)c1 [Compound 160] |  |
|  |  | 91 | Cc1ccc(OCc2ccc(C(=O)N(C)CC3CCCCC3)cc2C)c(-c2csc(N3CCC(C(=O)O)CC3)n2)c1 [Compound 161] |  |
|  |  | 71 | COCCCN(C)C(=O)c1ccc(COc2ccc(C)cc2-c2csc(N3CCC(C(=O)O)CC3)n2)c(C)c1 [Compound 162] |  |
|  |  | 750 | Cc1ccc(OCc2ccc(C(=O)NC3CCCCC3)cc2C)c(-c2csc(N3CCC(C(=O)O)CC3)n2)c1 [Compound 163] |  |
|  |  | 55 | Cc1ccc(OCc2ccc(C(=O)N(C)C3CCCCC3)cc2C)c(-c2csc(N3CCC(C(=O)O)CC3)n2)c1 [Compound 164] |  |
| > 57 | > 57 |  | Cc1cc(CN2CCCCC2)ccc1COc1ccc(C#N)cc1-c1csc(N2CCC(C(=O)O)CC2)n1 [Compound 169] |  |
| 24 (≈ 43.9 µM) | 37 (≈ 67.7 µM) |  | Cc1cc(CN2CCC(O)CC2)ccc1COc1ccc(C#N)cc1-c1csc(N2CCC(C(=O)O)CC2)n1 [Compound 170] |  |

| solubility [1, 3] [µg/mL] | solubility [1, 4] [µg/mL] | EC50 [2] [nM] | Structure (SMILES) | further results |
| --- | --- | --- | --- | --- |
| > 55 | > 55 |  | Cc1ccc(OCc2ccc(CN3CCC(O)CC3)cc2C)c(-c2csc(N3CCC(C(=O)O)CC3)n2)c1 [Compound 175] |  |
|  |  | 160 | Cc1ccc(OCc2ccc(CN3CCOCC3)cc2C)c(-c2csc(N3CC[C@H](C(=O)O)[C@H](C)C3)n2)c1 [Compound 176] |  |
|  |  | 170 | Cc1ccc(OCc2ccc(CN3CCOCC3)cc2C)c(-c2csc(N3CCC(C(=O)O)CC3C)n2)c1 (stereo not shown) [Compound 177] |  |
|  |  | 270 | COCCN(C)C(=O)c1ccc(COc2ccc(C)cc2-c2csc(N3CCC(C(=O)O)CC3)n2)c(C#N)c1 [Compound 178] |  |
|  |  | 1600 | Cc1cc(C(=O)N2CCCCC2)ccc1COc1ccc(Cl)cc1-c1csc(C2CCC(C(=O)O)CC2)n1 (stereo not shown) [Compound 182] |  |
|  |  | 4400 | Cc1cc(C(=O)N2CCCCC2)ccc1COc1ccc(C#N)cc1-c1csc([C@H]2CC[C@H](C(=O)O)CC2)n1 [Compound 183] |  |
|  |  | 1800 | Cc1cc(C(=O)N2CCCCC2)ccc1COc1ccc(C#N)cc1-c1csc(C2=CCC(C(=O)O)CC2)n1 (stereo not shown) [Compound 184] |  |
|  |  | 2700 | Cc1cc(CN2CCOCC2)ccc1COc1ccccc1-c1csc(N2CCC(C(=O)O)C(C(F)(F)F)C2)n1 (stereo not shown) [Compound 185] |  |
|  |  | 390 | Cc1cc(CN2CCOCC2)ccc1COc1ccc(Cl)cc1-c1csc(N2CC3C(C2)C3C(=O)O)n1 (stereo not shown) [Compound 187] |  |
|  |  | 830 | Cc1cc(CN2CCOCC2)ccc1COc1ccc(Cl)cc1-c1csc(C2=CCC(C(=O)O)CC2)n1 (stereo not shown) [Compound 188] |  |
|  |  | 9000 | Cc1cc(CN2CCOCC2)ccc1COc1ccc(C#N)cc1-c1csc(C2=CCC(C(=O)O)CC2)n1 (stereo not shown) [Compound 189] |  |
|  |  | 2500 | Cc1cc(CN2CCOCC2)ccc1COc1ccc(F)cc1-c1csc(C2CCC(C(=O)O)CC2)n1 (stereo not shown) [Compound 190] |  |
|  |  | 530 | Cc1cc(CN2CCOCC2)ccc1COc1ccc(F)cc1-c1csc(C2=CCC(C(=O)O)CC2)n1 (stereo not shown) [Compound 191] |  |
|  |  | 2400 | Cc1cc(CN2CCOCC2)ccc1COc1ccccc1-c1csc(C2=CCC(C(=O)O)CC2)n1 (stereo not shown) [Compound 193] |  |
|  |  | 150 | CCC(=O)N1CCN(Cc2ccc(COc3ccc(C)cc3-c3csc(N4CCC(C(=O)O)CC4)n3)c(C)c2)CC1 [Compound 194] |  |
|  |  | 83 | Cc1ccc(OCc2ccc(CN3CCN(C(=O)C(C)(C)C)CC3)cc2C)c(-c2csc(N3CCC(C(=O)O)CC3)n2)c1 [Compound 195] |  |
| 41 (≈ 69.5 µM) | 32 (≈ 54.3 µM) |  | Cc1ccc(OCc2ccc(CN3CCOCC3)cc2C)c(-c2csc(N3CCC(C(=O)O)C(C(F)(F)F)C3)n2)c1 (stereo not shown) [Compound 213] |  |
|  |  | 290 | Cc1ccc(OCc2ccc(C(=O)N(C)C)cc2C)c(-c2csc(N3CCC(C(=O)O)CC3)n2)c1 [Compound 294] |  |
|  | 0.45 (≈ 0.747 µM) |  | CCc1cc(C(=O)N2CCN(C)C(=O)C2)ccc1COc1ccc(C)cc1-c1csc(N2C[C@H]3CC[C@@H](C2)[C@H]3C(=O)O)n1 [Compound 295] | solubility ([1]; pH 6.8, aqueous buffer, Solubility (pH 6.8), pH 6.8): 60 µg/mL (≈ 99.5 µM) |
